Literature values, collected in PMC3277211 (Journal of the American Chemical Society, 2011).

What was measured:
E. coli P84L PAS0260 = conditions: E. coli MG1655 LepB(P84L) PAS0260; included for comparison
S. pyogenes MGAS-1 = conditions: included for comparison
R. opacus DSM 1069 = conditions: included for comparison
S. agalactiae COH-1 = conditions: included for comparison
S. epidermidis RP62A = conditions: included for comparison
S. aureus NCTC 8325 = S. aureus NCTC 8325 wild type; included for comparison
S. pneumoniae R800 = conditions: included for comparison
S. aureus P29S PAS8001 = conditions: S. aureus NCTC 8325 SpsB(P29S) PAS8001; included for comparison
P. aeruginosa PAO1 = P. aeruginosa PAO1 wild type; included for comparison
C. glutamicum DSM 44475 = conditions: included for comparison
[1] = system: P. aeruginosa P84L PAS2008; conditions: P. aeruginosa PAO1 LepB(P84L) PAS2008; included for comparison

Question: For Arylomycin A-C16, which MIC (E. coli P84L PAS0260) is on record?
Answer: The MIC was 2 µg/mL.

Question: What about the MIC (S. pyogenes MGAS-1) of the same substance?
Answer: Its MIC is 8 µg/mL.

Question: What about the MIC (R. opacus DSM 1069) of the same substance?
Answer: Its MIC is 2 µg/mL.

Question: And the MIC (S. agalactiae COH-1)?
Answer: The MIC was greater than 128 µg/mL.

Question: And the MIC (S. epidermidis RP62A)?
Answer: The MIC was 0.25 µg/mL.

Question: And the MIC (S. aureus NCTC 8325)?
Answer: Its MIC is greater than 128 µg/mL.

Question: And the MIC (S. pneumoniae R800)?
Answer: Its MIC is 8 µg/mL.

Question: And the MIC (S. aureus P29S PAS8001)?
Answer: The MIC was 2 µg/mL.

Question: What about the MIC (P. aeruginosa PAO1) of the same substance?
Answer: Its MIC is greater than 128 µg/mL.

Question: And the MIC (C. glutamicum DSM 44475)?
Answer: Its MIC is 4 µg/mL.

Question: What about the MIC [1] of the same substance?
Answer: Its MIC is 8 µg/mL.
